In the NIST ThermoML archive (doi:10.1021/acs.jced.6b00350):
Numbers after ± are expanded uncertainties.

Details: Liquid, Hot wire method

FC(F)CC(F)(F)F [1,1,1,3,3-pentafluoropropane]
thermal conductivity (323.16 K, 330 kPa): 0.08023 ± 0.001 W/m/K | thermal conductivity (323.16 K, 19684 kPa): 0.09037 ± 0.0012 W/m/K | thermal conductivity (323.16 K, 19687 kPa): 0.09046 ± 0.0012 W/m/K | thermal conductivity (323.23 K, 13828 kPa): 0.0878 ± 0.0011 W/m/K | thermal conductivity (323.23 K, 13836 kPa): 0.08777 ± 0.0011 W/m/K | thermal conductivity (323.31 K, 8785 kPa): 0.08509 ± 0.0011 W/m/K | thermal conductivity (323.31 K, 8786 kPa): 0.08508 ± 0.0011 W/m/K | thermal conductivity (323.33 K, 69855 kPa): 0.1079 ± 0.0014 W/m/K | thermal conductivity (323.33 K, 69859 kPa): 0.1079 ± 0.0014 W/m/K | thermal conductivity (323.4 K, 58551 kPa): 0.1046 ± 0.0013 W/m/K | thermal conductivity (323.41 K, 58550 kPa): 0.1047 ± 0.0013 W/m/K | thermal conductivity (323.46 K, 49806 kPa): 0.1018 ± 0.0013 W/m/K | thermal conductivity (323.46 K, 49813 kPa): 0.1019 ± 0.0013 W/m/K | thermal conductivity (323.52 K, 40518 kPa): 0.09873 ± 0.0013 W/m/K | thermal conductivity (323.52 K, 40523 kPa): 0.09883 ± 0.0013 W/m/K | thermal conductivity (323.56 K, 33191 kPa): 0.09593 ± 0.0012 W/m/K | thermal conductivity (323.57 K, 33190 kPa): 0.0959 ± 0.0012 W/m/K | thermal conductivity (323.65 K, 26145 kPa): 0.09305 ± 0.0012 W/m/K | thermal conductivity (323.65 K, 26148 kPa): 0.09303 ± 0.0012 W/m/K | thermal conductivity (323.66 K, 4345 kPa): 0.08263 ± 0.0011 W/m/K | thermal conductivity (323.67 K, 4353 kPa): 0.08281 ± 0.0011 W/m/K | thermal conductivity (323.71 K, 19685 kPa): 0.09038 ± 0.0012 W/m/K | thermal conductivity (323.72 K, 19683 kPa): 0.09025 ± 0.0012 W/m/K | thermal conductivity (323.74 K, 330 kPa): 0.08004 ± 0.001 W/m/K | thermal conductivity (323.74 K, 331 kPa): 0.08014 ± 0.001 W/m/K | thermal conductivity (323.8 K, 13825 kPa): 0.08771 ± 0.0011 W/m/K | thermal conductivity (323.8 K, 13826 kPa): 0.08762 ± 0.0011 W/m/K | thermal conductivity (323.88 K, 8784 kPa): 0.08522 ± 0.0011 W/m/K | thermal conductivity (323.89 K, 8785 kPa): 0.08516 ± 0.0011 W/m/K | thermal conductivity (341.35 K, 31717 kPa): 0.09048 ± 0.0012 W/m/K | thermal conductivity (341.36 K, 791 kPa): 0.07387 ± 0.00096 W/m/K | thermal conductivity (341.36 K, 807 kPa): 0.07373 ± 0.00095 W/m/K | thermal conductivity (341.36 K, 31723 kPa): 0.09099 ± 0.0012 W/m/K | thermal conductivity (341.37 K, 4061 kPa): 0.07637 ± 0.00099 W/m/K | thermal conductivity (341.37 K, 4066 kPa): 0.07637 ± 0.00099 W/m/K | thermal conductivity (341.37 K, 8227 kPa): 0.07909 ± 0.001 W/m/K | thermal conductivity (341.38 K, 8222 kPa): 0.07861 ± 0.001 W/m/K | thermal conductivity (341.39 K, 12846 kPa): 0.08132 ± 0.001 W/m/K | thermal conductivity (341.4 K, 12858 kPa): 0.08189 ± 0.001 W/m/K | thermal conductivity (341.41 K, 18251 kPa): 0.08455 ± 0.0011 W/m/K | thermal conductivity (341.42 K, 18258 kPa): 0.08459 ± 0.0011 W/m/K | thermal conductivity (341.43 K, 24450 kPa): 0.08726 ± 0.0011 W/m/K | thermal conductivity (341.44 K, 24457 kPa): 0.08772 ± 0.0011 W/m/K | thermal conductivity (341.44 K, 39673 kPa): 0.09407 ± 0.0012 W/m/K | thermal conductivity (341.44 K, 39675 kPa): 0.0951 ± 0.0012 W/m/K | thermal conductivity (341.65 K, 48504 kPa): 0.09719 ± 0.0012 W/m/K | thermal conductivity (341.66 K, 48505 kPa): 0.09738 ± 0.0012 W/m/K | thermal conductivity (341.69 K, 58414 kPa): 0.1006 ± 0.0013 W/m/K | thermal conductivity (341.71 K, 58417 kPa): 0.101 ± 0.0013 W/m/K | thermal conductivity (341.73 K, 69248 kPa): 0.1039 ± 0.0013 W/m/K | thermal conductivity (341.75 K, 69269 kPa): 0.1038 ± 0.0013 W/m/K | thermal conductivity (341.77 K, 31709 kPa): 0.09087 ± 0.0012 W/m/K | thermal conductivity (341.77 K, 31711 kPa): 0.09067 ± 0.0012 W/m/K | thermal conductivity (341.79 K, 800 kPa): 0.07352 ± 0.00095 W/m/K | thermal conductivity (341.79 K, 8213 kPa): 0.07901 ± 0.001 W/m/K | thermal conductivity (341.79 K, 8220 kPa): 0.07915 ± 0.001 W/m/K | thermal conductivity (341.8 K, 798 kPa): 0.074 ± 0.00096 W/m/K | thermal conductivity (341.8 K, 4049 kPa): 0.07607 ± 0.00098 W/m/K | thermal conductivity (341.8 K, 4060 kPa): 0.07627 ± 0.00099 W/m/K | thermal conductivity (341.8 K, 12862 kPa): 0.08133 ± 0.001 W/m/K | thermal conductivity (341.8 K, 18252 kPa): 0.08459 ± 0.0011 W/m/K | thermal conductivity (341.8 K, 18254 kPa): 0.0841 ± 0.0011 W/m/K | thermal conductivity (341.81 K, 12851 kPa): 0.08125 ± 0.001 W/m/K | thermal conductivity (341.81 K, 24448 kPa): 0.08731 ± 0.0011 W/m/K | thermal conductivity (341.81 K, 24452 kPa): 0.08759 ± 0.0011 W/m/K | thermal conductivity (341.83 K, 39657 kPa): 0.09382 ± 0.0012 W/m/K | thermal conductivity (341.83 K, 39667 kPa): 0.09362 ± 0.0012 W/m/K | thermal conductivity (342.05 K, 48492 kPa): 0.09719 ± 0.0012 W/m/K | thermal conductivity (342.06 K, 48492 kPa): 0.09719 ± 0.0012 W/m/K | thermal conductivity (342.09 K, 58399 kPa): 0.1006 ± 0.0013 W/m/K | thermal conductivity (342.1 K, 58406 kPa): 0.1005 ± 0.0013 W/m/K | thermal conductivity (342.12 K, 69235 kPa): 0.1042 ± 0.0013 W/m/K | thermal conductivity (342.12 K, 69238 kPa): 0.104 ± 0.0013 W/m/K | thermal conductivity (342.21 K, 31695 kPa): 0.09091 ± 0.0012 W/m/K | thermal conductivity (342.23 K, 24443 kPa): 0.08756 ± 0.0011 W/m/K | thermal conductivity (342.23 K, 31701 kPa): 0.09082 ± 0.0012 W/m/K | thermal conductivity (342.24 K, 18254 kPa): 0.08456 ± 0.0011 W/m/K | thermal conductivity (342.24 K, 18263 kPa): 0.08459 ± 0.0011 W/m/K | thermal conductivity (342.24 K, 24457 kPa): 0.08773 ± 0.0011 W/m/K | thermal conductivity (342.25 K, 8211 kPa): 0.079 ± 0.001 W/m/K | thermal conductivity (342.25 K, 8213 kPa): 0.0788 ± 0.001 W/m/K | thermal conductivity (342.25 K, 12847 kPa): 0.08139 ± 0.001 W/m/K | thermal conductivity (342.26 K, 12846 kPa): 0.08139 ± 0.001 W/m/K | thermal conductivity (342.27 K, 4048 kPa): 0.07633 ± 0.00099 W/m/K | thermal conductivity (342.27 K, 39655 kPa): 0.09411 ± 0.0012 W/m/K | thermal conductivity (342.28 K, 795 kPa): 0.07417 ± 0.00096 W/m/K | thermal conductivity (342.28 K, 4064 kPa): 0.07591 ± 0.00098 W/m/K | thermal conductivity (342.28 K, 39659 kPa): 0.09393 ± 0.0012 W/m/K | thermal conductivity (342.29 K, 784 kPa): 0.07414 ± 0.00096 W/m/K | thermal conductivity (342.49 K, 48484 kPa): 0.09716 ± 0.0012 W/m/K | thermal conductivity (342.51 K, 48493 kPa): 0.09719 ± 0.0012 W/m/K | thermal conductivity (342.51 K, 58384 kPa): 0.1004 ± 0.0013 W/m/K | thermal conductivity (342.53 K, 58390 kPa): 0.1005 ± 0.0013 W/m/K | thermal conductivity (342.53 K, 69205 kPa): 0.104 ± 0.0013 W/m/K | thermal conductivity (342.54 K, 69218 kPa): 0.1038 ± 0.0013 W/m/K | thermal conductivity (342.7 K, 24435 kPa): 0.08753 ± 0.0011 W/m/K | thermal conductivity (342.71 K, 18288 kPa): 0.08467 ± 0.0011 W/m/K | thermal conductivity (342.71 K, 24437 kPa): 0.08761 ± 0.0011 W/m/K | thermal conductivity (342.72 K, 31697 kPa): 0.09082 ± 0.0012 W/m/K | thermal conductivity (342.72 K, 31698 kPa): 0.09091 ± 0.0012 W/m/K | thermal conductivity (342.73 K, 18277 kPa): 0.08453 ± 0.0011 W/m/K | thermal conductivity (342.74 K, 12836 kPa): 0.08165 ± 0.001 W/m/K | thermal conductivity (342.75 K, 12854 kPa): 0.08161 ± 0.001 W/m/K | thermal conductivity (342.75 K, 39640 kPa): 0.09416 ± 0.0012 W/m/K | thermal conductivity (342.75 K, 39649 kPa): 0.09419 ± 0.0012 W/m/K | thermal conductivity (342.77 K, 8198 kPa): 0.07878 ± 0.001 W/m/K | thermal conductivity (342.77 K, 8214 kPa): 0.07886 ± 0.001 W/m/K | thermal conductivity (342.8 K, 4060 kPa): 0.07628 ± 0.00099 W/m/K | thermal conductivity (342.81 K, 4048 kPa): 0.07623 ± 0.00099 W/m/K | thermal conductivity (342.82 K, 778 kPa): 0.074 ± 0.00096 W/m/K | thermal conductivity (342.83 K, 779 kPa): 0.07358 ± 0.00095 W/m/K | thermal conductivity (342.98 K, 48479 kPa): 0.09746 ± 0.0013 W/m/K | thermal conductivity (342.99 K, 48476 kPa): 0.09717 ± 0.0012 W/m/K | thermal conductivity (342.99 K, 58371 kPa): 0.1007 ± 0.0013 W/m/K | thermal conductivity (342.99 K, 69188 kPa): 0.1043 ± 0.0013 W/m/K | thermal conductivity (342.99 K, 69203 kPa): 0.1043 ± 0.0013 W/m/K | thermal conductivity (343 K, 58374 kPa): 0.1007 ± 0.0013 W/m/K | thermal conductivity (343.21 K, 24431 kPa): 0.0874 ± 0.0011 W/m/K | thermal conductivity (343.22 K, 24434 kPa): 0.0876 ± 0.0011 W/m/K | thermal conductivity (343.25 K, 18297 kPa): 0.0846 ± 0.0011 W/m/K | thermal conductivity (343.25 K, 18305 kPa): 0.08481 ± 0.0011 W/m/K | thermal conductivity (343.25 K, 31683 kPa): 0.09097 ± 0.0012 W/m/K | thermal conductivity (343.25 K, 31692 kPa): 0.09092 ± 0.0012 W/m/K | thermal conductivity (343.27 K, 39640 kPa): 0.09411 ± 0.0012 W/m/K | thermal conductivity (343.28 K, 39648 kPa): 0.09409 ± 0.0012 W/m/K | thermal conductivity (343.29 K, 12856 kPa): 0.08212 ± 0.0011 W/m/K | thermal conductivity (343.3 K, 12844 kPa): 0.08186 ± 0.001 W/m/K | thermal conductivity (343.33 K, 8193 kPa): 0.07913 ± 0.001 W/m/K | thermal conductivity (343.33 K, 8208 kPa): 0.07905 ± 0.001 W/m/K | thermal conductivity (343.38 K, 4043 kPa): 0.07572 ± 0.00098 W/m/K | thermal conductivity (343.39 K, 4045 kPa): 0.07592 ± 0.00098 W/m/K | thermal conductivity (343.42 K, 777 kPa): 0.07373 ± 0.00095 W/m/K | thermal conductivity (343.43 K, 791 kPa): 0.07347 ± 0.00095 W/m/K | thermal conductivity (343.48 K, 69162 kPa): 0.1043 ± 0.0013 W/m/K | thermal conductivity (343.49 K, 69172 kPa): 0.1045 ± 0.0013 W/m/K | thermal conductivity (343.5 K, 48465 kPa): 0.09758 ± 0.0013 W/m/K | thermal conductivity (343.5 K, 58358 kPa): 0.1009 ± 0.0013 W/m/K | thermal conductivity (343.5 K, 58363 kPa): 0.1009 ± 0.0013 W/m/K | thermal conductivity (343.51 K, 48479 kPa): 0.0974 ± 0.0012 W/m/K
